# Measurements published in publication PMC10723784, “Investigation of the cytotoxicity induced by cannabinoids on human ovarian carcinoma cells” (Pharmacology Research & Perspectives, 2023).
# Where “and” joins values, the source holds several entries; their conditions need not be identical. Identical values can stand only once. Like-named read-outs stand apart in the source and are kept apart here.
# Legend:
# A2780/CP70 cells [1] = test: Mitochondrial membrane potential assay (JC-1), A2780/CP70 cells; type: cell-based, human; details: A2780/CP70, 10-50 μM, 24 h, dose-dependent
# Protocol: (§1) The mitochondrial membrane potential assay was performed to detect the loss in mitochondrial potential (de‐polarization), which is a vital step in apoptosis.[36] Cells were seeded in T25 flasks at 4 × 10^5 cells per flask and were incubated for 48 h or until they reached confluency. After the incubation time elapsed, drugs at concentrations of 10, 30, and 50 μM or vehicle were added to the flasks and further incubated for 24 h. After 24 h elapsed, the cells were harvested and suspended in PBS. Cell viability and number were determined by the cell viability assay using via1 cassettes on NC‐3000 system. The samples were diluted in PBS to 1 × 10^6 cells/mL and 2.5 μg/mL of JC‐1 dye was added to each sample. JC‐1 is a […] dye, which stains as fluorescent red as it aggregates in the mitochondrial matrix. In the absence of mitochondrial membrane potential, JC‐1 localizes in the cytosol in its fluorescent green form. Following the addition of JC‐1, the cells were incubated for 10–30 min at 37°C. […] 12.5 μL of samples were loaded on to an A‐8 slide and were analyzed using the NC‐3000 image cytometry. The degree of apoptosis (in proportional to the loss in mitochondrial membrane potential) was measured using a scatter plot of JC‐1 red fluorescence versus JC‐1 green fluorescence.
# A2780 cells [2] = test: Cell cycle analysis (DAPI, NC-3000), A2780 cells; type: cell-based, human; details: 48 h
# Protocol: (§2) Cells were seeded in T25 flasks at 4 × 10^5 cells per flask and were incubated for 48 h or until they reached confluency. […] After the incubation time elapsed cells were suspended in PBS with a density closer to 1 × 10^6cells/mL. The cells were washed twice with 1× PBS before the addition of 250 μL of lysis buffer (solution 10) supplemented with 10 μg/mL DAPI (solution 12) was added to the samples and incubated for 5 min at 37°C. After incubation, 250 μL of stabilization buffer (solution 11) was added. 12.5 μL of samples were loaded on to an A‐8 slide and were analyzed using the NC‐3000 system.
# A2780/CP70 cells [3] = test: MTT cytotoxicity assay, A2780/CP70 cells; details: for IC50: Homo sapiens, read-out: IC50 cytotoxicity
# Protocol: (§3) In separate experiments, cells were seeded in 96‐well plates and after 24 h elapsed they were exposed to different concentrations of drugs or vehicle. Cells were then left in the incubator for a further 24 or 48 h. Then the media was replaced with fresh media containing no drug and the cells were left in the incubator. MTT assay was performed after 96 h elapsed from the time when cells were exposed to drugs or vehicle.
# (§4) The cells were then left in the incubator and MTT assay was performed 96 h following the initial exposure to the drugs.
# (§5) The selective index (SI) is the ratio of mean IC50 values for non‐cancer cells to cancer cells. […] While the isobologram can be considered predominantly as a graphical depiction of drug interactions, the combination index (CI) is a quantitative representation. It relates the actual drug concentration in the combination to the concentration of the single drug that achieves the same effect. […] Here, CI analysis was used to investigate combinations at 50% cytotoxicity. To this end the IC50 of the viability dose–response curves were determined by non‐linear regression curve fit analysis (GraphPad Prism, v5.00).
# (§6) CIA+B is the combination index of A and B; C A the concentration of A applied in combination; C B the concentration of B applied in combination; IC50 A the IC50 of drug A when it was applied individually to the cells; IC50 B = IC50 of drug B when it was applied individually to the cells.
# [4] = MTT cytotoxicity assay, non-cancer PNT2 cells; details: human, PNT2 normal prostate epithelial cells
# Protocol: (§9) Human ovarian carcinoma cells, A2780 (sensitive to chemotherapeutics), A2780/CP70 (resistant to chemotherapeutics), and non‐cancerous cells including PNT2 (normal prostate epithelial cell line), and/or ARPE19 (human retinal pigment cell line) were maintained according to the ATCC and ECACC guidelines.
# (§10) In vitro chemosensitivity assays were performed using the MTT assay as previously described.[32], [33] Briefly, at 70% confluency, cells were seeded in 96‐well plates at a density of 2000 cells/well. […] After the allocated contact time had elapsed, the media was removed and 0.5% (w/v) MTT solution diluted in complete media (200 μL) was added to each well. Following a 4 h incubation, the supernatants were removed, and the formazan crystals were dissolved in dimethylsulfoxide (150 μL). The absorbance was read at 540 nm on a Tecan Infinite 50 plate UV reader.
# [5] = system: caspase 3/7 activity in A2780/CP70 cells; test: Caspase 3/7 assay, A2780/CP70 cells; type: cell-based, human; details: A2780/CP70, 24 h contact time, dose-dependent, significant above 10 μM
# Protocol: (§7) Sensolyte homogenous caspase 3/7 assay kit was used to determine the caspase activity in ovarian cancer cells when treated with CBG. Cells were seeded in 96‐well plate at 6 × 10^3 cells per well and were incubated for 24 h. CBG was added in concentrations of 10, 20, 30, and 50 μM and incubated for a further 24 h. After the incubation time elapsed, the media was removed and replaced with 150 μL/well of fresh complete media. Caspase 3/7 solution was prepared by diluting the caspase substrate 1:100 with DTT‐containing assay buffer. 50 μL/well caspase substrate was added to the plates, and the cells were incubated for 30 min. Ac‐DEVD‐AMC serves as the fluorogenic indicator for assaying caspase‐3/7 activity. Ac‐DEVD‐AMC generates the AMC fluorophore in the presence of caspase 3/7, which produces bright blue fluorescence. The fluorescence was measured by the FLOUstar OPTIMA plate reader with the excitation at 354 nm and emission at 442 nm.
# (§8) The level of caspase 3/7 was also determined using Apotox‐Glo Triple assay. Cells were seeded and drugs were added as described above in Section 2.6.1. After 24 h incubation, caspase 3/7 reagent was prepared by mixing caspase buffer and substrate and 100 μL of reagent was added to each well for 30 min incubation at room temperature. […] The luminescence was measured by the FLOUstar OPTIMA plate reader.
# A2780/CP70 cells [6] = test: Cell cycle analysis (DAPI, NC-3000), A2780/CP70 cells; type: cell-based, human; details: 48 h
# Protocol: as §2
# A2780 cells [7] = test: MTT cytotoxicity assay, A2780 cells; details: for IC50: Homo sapiens, read-out: IC50 cytotoxicity
# Protocol: as §3, §4, §5, §6
# [8] = high doses such as 1500 mg/day; cited from earlier work
# A2780 cells [9] = test: Mitochondrial membrane potential assay (JC-1), A2780 cells; type: cell-based, human; details: A2780, 10-50 μM, 24 h, dose-dependent
# Protocol: as §1
# [10] = MTT cytotoxicity assay, non-cancer ARPE19 cells; details: human, ARPE19 non-cancer retinal pigment cells
# Protocol: as §9, §10
# [11] = system: caspase 3/7 activity in A2780 cells; test: Caspase 3/7 assay, A2780 cells; type: cell-based, human; details: A2780, 24 h contact time, dose-dependent, significant above 10 μM
# Protocol: as §7, §8
compound,measurement,setting,value
"C=C(C)[C@@H]1CCC(C)=C[C@H]1c1c(O)cc(CCCCC)cc1O [CBD, cannabidiol]",Percentage of apoptotic cells (loss of mitochondrial membrane potential),A2780/CP70 cells [1],induced an increase in the percentage of apoptotic cells
same,Cells in G0/G1 phase,"A2780 cells [2]; A2780, 10 μM",81.4 ± 1.3%
same,Cells in G0/G1 phase,"A2780 cells [2]; A2780, 30 μM",85 ± 1.5%
same,Cells in S phase,"A2780 cells [2]; A2780, 30 μM",6 ± 1.5%
same,Cells in G0/G1 phase,"A2780 cells [2]; A2780, 50 μM",61.6 ± 1.4%
same,Cells in subG1 phase,"A2780 cells [2]; A2780, 50 μM",11.1 ± 1.0%
same,Selectivity index,A2780/CP70 cells [3],1.57 and 1.28 and 1.78 and 2.02 and 2.49 and 1.52 and 2.35 and 2.48
same,IC50,"A2780/CP70 cells [3]; A2780/CP70, 24 h",16.1 ± 0.6 µM
same,IC50,"A2780/CP70 cells [3]; A2780/CP70, 48 h",11.2 ± 0.7 µM
same,IC50,"A2780/CP70 cells [3]; A2780/CP70, 72 h",7.3 ± 0.4 µM
same,IC50,"A2780/CP70 cells [3]; A2780/CP70, 96 h",5.8 ± 0.8 µM
same,IC50 at 24 h,[4],40.6 ± 2.3 µM
same,IC50 at 48 h,[4],17.7 ± 2.4 µM
same,IC50 at 72 h,[4],17.2 ± 0.6 µM
same,IC50 at 96 h,[4],14.4 ± 1.6 µM
same,Caspase 3/7 activity,[5],increased the caspase 3/7 activity
same,Cells in G0/G1 phase,"A2780/CP70 cells [6]; A2780/CP70, 10 μM",77.4 ± 1.3%
same,Cells in G0/G1 phase,"A2780/CP70 cells [6]; A2780/CP70, 30 μM",85.1 ± 1.1%
same,Cells in G0/G1 phase,"A2780/CP70 cells [6]; A2780/CP70, 50 μM",64.9 ± 0.9%
same,Cells in subG1 phase,"A2780/CP70 cells [6]; A2780/CP70, 50 μM",6 ± 0.9%
same,IC50,"A2780 cells [7]; A2780, 24 h",12.3 ± 0.7 µM
same,IC50,"A2780 cells [7]; A2780, 48 h",6.8 ± 1.1 µM
same,IC50,"A2780 cells [7]; A2780, 72 h",4.5 ± 0.1 µM
same,IC50,"A2780 cells [7]; A2780, 96 h",3.5 ± 0.2 µM
same,Cytotoxicity,A2780 cells [7]; human,approximately 90%
same,Tolerability in humans,[8],well tolerated
same,Percentage of apoptotic cells (loss of mitochondrial membrane potential),A2780 cells [9],induced an increase in the percentage of apoptotic cells
same,IC50 at 24 h,[10],25.3 ± 1.8 µM
same,IC50 at 48 h,[10],14.4 ± 0.9 µM
same,IC50 at 72 h,[10],13 µM
same,IC50 at 96 h,[10],11.7 ± 1.2 µM
same,Caspase 3/7 activity,[11],increased the caspase 3/7 activity
COc1ccc(C(=O)c2c(C)n(CCN3CCOCC3)c3cc(I)ccc23)cc1 [AM630],Concentrations at which the antagonist alone induced cytotoxicity,"A2780/CP70 cells [3]; A2780/CP70, antagonist alone",higher than 1 μM
same,Concentrations at which the antagonist alone induced cytotoxicity,"A2780 cells [7]; A2780, antagonist alone",higher than 1 μM
